This assay addresses cAMP and cAMP-inhibited cGMP 3',5'-cyclic phosphodiesterase 10A (Homo sapiens, UniProt Q9Y233). The experiment in a line: PDE10A assay. In outline:
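Scintillation proximity readout of [3H]cGMP hydrolysis (50 nM final substrate, 15 min) by 2 ng/well human PDE10A after 15 min compound preincubation at RT, pH 7.5 with MgCl2. Four-parameter logistic fit gave IC50, reported as pIC50.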

Usually pIC50 stands for −log10 of the IC50, conventionally taken in molar units. Read a low pIC50 as a large IC50.

Structures are written as SMILES. pIC50: −log10 of the molar value.

As to `CCn1nc(C)cc1C(=O)Nc1cc2nc(-c3ccccc3)[nH]c2cc1C(=O)NCCOC` [Roche-Dataset for PDE10A, Compound 256], the pIC50 was 7.85.

Molecule `O=C(Nc1ccn(-c2ccncc2)n1)c1nc(C2CC2)ccc1Nc1cncnc1` [US8470820, 7] gave a negative-log IC50 (pIC50) of 8.01. In the case of `CNC(=O)c1ccc(F)cc1NC(=O)c1nc(C2CC2)cnc1Nc1cncnc1` [US8703768, 292] it was 9.17; in that of `Cc1cc(NC(=O)c2ccc3cc(-c4ccccc4)nn3c2)on1` [Roche-Dataset for PDE10A, Compound 898], 5.48.

In the case of `O=C(Nc1cnccc1C(=O)N1CC(F)(F)C1)c1nc(C2CC2)ccc1Nc1cncnc1` [Roche-Dataset for PDE10A, Compound 508], the negative logarithm of the IC50 (pIC50) is 7.52. The value for `CNC(=O)c1c(NC(=O)c2nc(Cl)c(OC)nc2Nc2cncnc2)cnn1C` [Roche-Dataset for PDE10A, Compound 1152] was 5.34; that for `CNC(=O)c1cc2[nH]c(-c3ccccc3)nc2cc1NC(=O)c1c(C(=O)N2CCOCC2)cnn1C` [Roche-Dataset for PDE10A, Compound 453] was 6.71; that for `Cn1ncc(C(=O)N2CCC2)c1C(=O)Nc1cn(-c2ccccn2)cn1` [Roche-Dataset for PDE10A, Compound 833] was 7.34. The value for `Cc1ncc(C)n2nc(/C=C/c3nc(N4CCCC4)cn3C)nc12` [Roche-Dataset for PDE10A, Compound 596] was 6.49; that for `O=C(Nc1ccn(CCO)n1)c1nc(C2CC2)ccc1Nc1cncnc1` [Roche-Dataset for PDE10A, Compound 597] was 7.30.

Consider `COc1cc(-c2nc3cc(NC(=O)c4c(C(=O)N5CCC5)cnn4C)ccn3n2)ccn1` [Roche-Dataset for PDE10A, Compound 185], for which the negative logarithm of the IC50 (pIC50) was 8.33. The value for `Cc1nc2ccccc2nc1OCc1nc(-c2ccc(Cl)cc2)cn1C` [Roche-Dataset for PDE10A, Compound 810] was 6.75. In the case of `CNC(=O)c1cc2[nH]c(-c3ccccc3)nc2cc1NC(=O)c1oc(COCc2ccccc2)nc1C` [Roche-Dataset for PDE10A, Compound 152] it was 7.29.

`CN(C)c1nc(/C=C/c2cccc(Br)n2)nc2ccc(Cl)cc12` [Roche-Dataset for PDE10A, Compound 574]: the negative-log IC50 (pIC50) was 6.55. As for `CC(C)C[C@H](CO)NC(=O)c1nc(C2CC2)cnc1Nc1cncnc1` [Roche-Dataset for PDE10A, Compound 939], the negative-log IC50 (pIC50) is 5.61. The value for `CCOc1cc(Cl)c(C)n2nc(CCc3nc(N4CCCC4)nn3C)nc12` [Roche-Dataset for PDE10A, Compound 266] was 9.22; that for `CNC(=O)c1c(NC(=O)c2nc(C)c(C)nc2Nc2cncnc2)cnn1C` [Roche-Dataset for PDE10A, Compound 1099] was 5.11; that for `CC(C)c1nc2cc(NC(=O)c3c(C(=O)O)cnn3C)ccn2n1` [Roche-Dataset for PDE10A, Compound 848] was 5.91. With `Cn1cc(-c2ccccc2)nc1COc1ncc(C2CC2)nc1C(=O)NCC1CC1` [Roche-Dataset for PDE10A, Compound 191], the negative logarithm of the IC50 (pIC50) is 6.66.

As to `Cc1ncc(C)n2nc(/C=C/c3nc(N4C[C@@H]5C[C@H]6CN(C(=O)OC(C)(C)C)C[C@]65C4)nn3C)nc12` [Roche-Dataset for PDE10A, Compound 1066], the pIC50 is 5.21. `Cn1ncc(C(=O)N2CCC2)c1C(=O)Nc1cc(-c2ccccc2Cl)n[nH]1` [Roche-Dataset for PDE10A, Compound 958] gave a negative logarithm of the IC50 (pIC50) of 5.89. The value for `Cc1ncc(C)n2nc(/C=C/c3nc(N4CC[C@H](C)C4)nn3C)nc12` [Roche-Dataset for PDE10A, Compound 566] was 7.35. Turning to `CCOC(=O)Cc1csc(NC(=O)c2nc(C3CC3)cnc2Nc2cncnc2)n1` [Roche-Dataset for PDE10A, Compound 914], the pIC50 was 8.30. The value for `CNC(=O)c1cc2[nH]c(-c3ccccc3)nc2cc1NC(=O)c1cc(C)n(C(C)(C)C)n1` [Roche-Dataset for PDE10A, Compound 713] was 7.12. In the case of `COc1ccc(-c2nnc(NC(=O)c3nc(C4CC4)ccc3Nc3cncnc3)s2)cc1` [US8470820, 44] it was 5.75; in that of `CC(C)n1nc(NC(=O)c2nc(C3CC3)ccc2Nc2cncnc2)cc1C(=O)N(C)C` [Roche-Dataset for PDE10A, Compound 1013], 6.10. The value for `CC(C)(CO)NC(=O)c1ncccc1NC(=O)c1nc(C2CC2)cnc1Nc1cncnc1` [US8703768, 273] was 9.51; that for `Cc1nnc2c(C(=O)NCCc3nc(-c4ccccc4)cn3C)cccn12` [Roche-Dataset for PDE10A, Compound 166] was 7.02. Molecule `Cn1ncc(C(=O)N2CCC2)c1C(=O)Nc1ccn(-c2ccc(Cl)cc2Cl)n1` [Roche-Dataset for PDE10A, Compound 1034] showed a pIC50 of 5.98.

Take `Cc1ccc2nc(Cl)c(OCc3nc(-c4ccccc4)cn3C)nc2c1` [Roche-Dataset for PDE10A, Compound 540]: the pIC50 is 8.30. Regarding `CN(C(=O)c1cnn(C)c1C(=O)Nc1ccn2nc(N3CCOCC3)nc2c1)C1CC1` [Roche-Dataset for PDE10A, Compound 207], the pIC50 was 8.96. In the case of `Cn1nc(-c2ccccn2)cc1NC(=O)c1c(C(=O)N2CCC2)cnn1C` [Roche-Dataset for PDE10A, Compound 535] it was 8.10; in that of `CC(C)Oc1cccc(NC(=O)c2nc(C3CC3)cnc2Nc2cncnc2)n1` [Roche-Dataset for PDE10A, Compound 917], 7.62; in that of `Cn1nc(-c2ccc(C(F)(F)F)cn2)cc1NC(=O)c1c(C(=O)N2CCC2)cnn1C` [Roche-Dataset for PDE10A, Compound 634], 7.59.

The molecule `Cn1ncc(C(=O)NCc2nc3ccccc3[nH]2)c1C(=O)Nc1ccn2cc(-c3ccccc3)nc2n1` [Roche-Dataset for PDE10A, Compound 1153] gave a pIC50 of 5.82. The value for `Cn1nc(-c2ccccn2)cc1NC(=O)c1cc(C(F)(F)F)ncc1Br` [Roche-Dataset for PDE10A, Compound 547] was 5.00; that for `Cc1cnc(C)n2nc(/C=C/c3ncnn3C)nc12` [Roche-Dataset for PDE10A, Compound 1142] was 5.41.

`Cn1cc(-c2ccccc2)nc1COc1ncc(C2CC2)nc1C(=O)NCc1ccccc1` [Roche-Dataset for PDE10A, Compound 59] had a pIC50 of 7.24. In the case of `O=C(NC1CCOCC1)c1nc(C2CC2)cnc1Nc1cncnc1` [Roche-Dataset for PDE10A, Compound 1059] it was 5.75. The value for `Cn1cc(NC(=O)c2nc(C3CC3)ccc2Nc2cncnc2)c(C(=O)N2CCC2)n1` [US8703768, 30] was 7.48; that for `CN(C)C(=O)c1cc(NC(=O)c2nc(C3CC3)ccc2Nc2cncnc2)nn1C` [Roche-Dataset for PDE10A, Compound 1005] was 6.17; that for `Cn1cc(-c2ccccc2)nc1COc1nc2ccccc2nc1N1CCCC1` [Roche-Dataset for PDE10A, Compound 403] was 8.11. In the case of `CCN(C)C(=O)c1cnn(C)c1C(=O)Nc1ccn2cc(-c3cccc(OCCCF)c3)nc2n1` [Roche-Dataset for PDE10A, Compound 1] it was 8.22. Consider `Cn1ncc(C(=O)N2CC(F)C2)c1C(=O)Nc1ccn2nc(N3CCOCC3)nc2c1` [Roche-Dataset for PDE10A, Compound 372], for which the pIC50 is 8.30. `O=C(Nc1cccc(N2CCCC2=O)c1)c1nc(C2CC2)ccc1Nc1cncnc1` [Roche-Dataset for PDE10A, Compound 831] gave a negative logarithm of the IC50 (pIC50) of 7.62. `Cc1cc(Cl)c(C)n2nc(/C=C/c3nc(N4CCCC4)nn3C)nc12` [Roche-Dataset for PDE10A, Compound 300]: the pIC50 is 9.48. In the case of `Cn1ncc(NC(=O)c2c(C(=O)N3CCC3)cnn2C)c1C(=O)N1CCCCC1` [Roche-Dataset for PDE10A, Compound 1035] it was 5.36. The value for `COc1ncc(C2CC2)nc1C(=O)Nc1cc(-c2ccccn2)nn1C` [Roche-Dataset for PDE10A, Compound 776] was 5.78; that for `COCCn1nc(-c2ccccn2)cc1NC(=O)c1nc(C2CC2)ccc1Nc1cncnc1` [US8470820, 38] was 9.74. `O=C(Nc1ccnc(Cl)c1)c1cn(-c2ccc3ccccc3n2)cn1` [Roche-Dataset for PDE10A, Compound 414]: the pIC50 is 6.52.

The molecule `O=C(NCc1ccc2c(c1)CCO2)c1nc(C2CC2)cnc1Nc1cncnc1` [Roche-Dataset for PDE10A, Compound 718] showed a pIC50 of 6.83. In the case of `Cc1cc(NC(=O)c2c(C(=O)N3CCC3)cnn2C)nn1C1CCCC1` [Roche-Dataset for PDE10A, Compound 1063] it was 6.36; in that of `O=C(Nc1nc(CN2CCCCC2)cs1)c1nc(C2CC2)cnc1Nc1cncnc1` [Roche-Dataset for PDE10A, Compound 832], 7.49; in that of `Cn1ncc(C(=O)N(CCO)CCO)c1C(=O)Nc1ccn2nc(-c3ccccc3)nc2c1` [Roche-Dataset for PDE10A, Compound 125], 8.40.

`Cc1c(Cl)cc(C(F)(F)F)c2nc(/C=C/c3nc(Br)nn3C)nn12` [Roche-Dataset for PDE10A, Compound 764] had a negative logarithm of the IC50 (pIC50) of 6.94.

On to `CC(C)n1ccc(NC(=O)c2c(C(=O)N3CCC3)cnn2C)n1` [Roche-Dataset for PDE10A, Compound 1118], for which the negative-log IC50 (pIC50) is 5.74. In the case of `Nc1ccc(C2CC2)nc1C(=O)Nc1cc2nc(-c3ccccc3)[nH]c2cc1C(=O)NC1COC1` [Roche-Dataset for PDE10A, Compound 243] it was 7.96. Consider `Cc1cnc(C)n2nc(/C=C/c3nc(Br)nn3C)nc12` [Roche-Dataset for PDE10A, Compound 1128], for which the pIC50 was 5.69.

In turn, `Cn1ncc(C(=O)N2CCC2)c1C(=O)N[C@@H]1CCn2cc(-c3ccc(F)cc3)nc2C1` [Roche-Dataset for PDE10A, Compound 261] gave a pIC50 of 8.34.

The values are drawn from BindingDB's records for doi:10.1007/s10822-022-00478-x (Roche Innovation Center Basel, F. Hoffmann-La Roche Ltd., 2022).
